Biological target: PIK3CA (human) (UniProt P42336)
Assay: Assessment of PIK3CA Kinase Activity

PIK3CA (human), sequence (P42336 whole entry, looked up): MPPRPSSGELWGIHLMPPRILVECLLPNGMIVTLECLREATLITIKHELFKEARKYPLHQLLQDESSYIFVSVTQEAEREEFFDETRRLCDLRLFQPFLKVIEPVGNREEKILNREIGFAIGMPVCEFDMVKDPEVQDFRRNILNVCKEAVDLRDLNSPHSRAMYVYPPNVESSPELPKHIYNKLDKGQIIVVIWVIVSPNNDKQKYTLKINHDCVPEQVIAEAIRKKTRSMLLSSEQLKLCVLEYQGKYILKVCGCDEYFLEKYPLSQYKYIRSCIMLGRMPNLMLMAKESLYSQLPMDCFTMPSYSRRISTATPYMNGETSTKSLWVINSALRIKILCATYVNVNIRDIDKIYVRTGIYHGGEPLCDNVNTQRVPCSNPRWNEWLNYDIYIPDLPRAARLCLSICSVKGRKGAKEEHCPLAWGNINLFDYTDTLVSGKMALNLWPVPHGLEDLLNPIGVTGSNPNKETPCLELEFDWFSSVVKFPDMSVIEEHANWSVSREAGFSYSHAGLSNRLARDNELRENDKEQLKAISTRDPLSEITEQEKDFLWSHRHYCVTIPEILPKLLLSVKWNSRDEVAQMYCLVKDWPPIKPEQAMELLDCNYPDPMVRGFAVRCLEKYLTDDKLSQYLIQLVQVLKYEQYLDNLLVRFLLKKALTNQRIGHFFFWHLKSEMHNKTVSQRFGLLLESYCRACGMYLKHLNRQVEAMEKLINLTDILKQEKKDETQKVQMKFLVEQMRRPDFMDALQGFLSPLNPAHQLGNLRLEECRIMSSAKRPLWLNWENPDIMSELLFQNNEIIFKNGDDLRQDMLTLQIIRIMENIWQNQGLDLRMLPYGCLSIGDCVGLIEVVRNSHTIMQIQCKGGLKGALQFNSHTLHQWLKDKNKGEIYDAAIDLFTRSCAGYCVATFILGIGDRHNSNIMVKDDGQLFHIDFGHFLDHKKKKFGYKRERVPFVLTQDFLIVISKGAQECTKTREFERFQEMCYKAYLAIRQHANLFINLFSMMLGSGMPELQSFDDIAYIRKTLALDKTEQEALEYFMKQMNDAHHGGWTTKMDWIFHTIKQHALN

| IC50 [µM] | Structure (SMILES) |
| --- | --- |
| < 1 | Cc1ncc(-c2ccc3c(c2)OCCn2cc(-c4ncnn4C(C)C)nc2-3)[nH]1 |
| < 1 | CC(C)n1ncnc1-n1cc2c(n1)-c1cc(C(=O)N3CCNCC3)ccc1OCC2 |
| < 1 | CNC(=O)c1ccc2c(c1)OCCn1cc(-c3ncnn3-c3ccccc3Cl)nc1-2 |
| < 1 | CNC(=O)c1ccc2c(c1)OCCn1cc(-c3ncnn3CC(F)(F)F)nc1-2 |
| < 1 | CC(C)n1ncnc1-c1cc2n(n1)-c1cc(C(=O)NC3CNC3)ccc1OCC2 |
| < 1 | Nc1cc2c(cn1)-c1nc(-c3ncnn3CC(F)(F)F)cn1CCO2 |
| < 1 | Cc1nc(-c2cn3c(n2)-c2ccc(C4COC4)cc2OCC3)n(C(C)C)n1 |
| < 1 | CS(=O)(=O)CCN1CCC(c2ccc3c(c2)-n2nc(-c4ncnn4CC(F)(F)F)cc2CCO3)CC1 |
| < 1 | CC(C)n1ncnc1-c1cn2c(n1)-c1ccc(N3CC(C(N)=O)C3)nc1OCC2 |
| < 1 | CC(C)CC(Oc1ccc2c(c1)OCCn1cc(-c3ncnn3C(C)C)nc1-2)C(N)=O (stereo not given) |
| < 1 | CC(C)n1ncnc1-c1cn2c(n1)-c1ccc(-c3cnc[nH]3)cc1OCC2 |
| < 1 | COC(=O)c1ccc2c(c1)OCCn1cc(-c3ncnn3CC(F)(F)F)nc1-2 |
| < 1 | Clc1ccccc1-n1ncnc1-c1cn2c(n1)-c1cc(-c3ccccc3)ccc1OCC2 |
| < 1 | C[C@H](Oc1ccc2c(c1)OCCn1cc(-c3ncnn3-c3ccc(F)cc3F)nc1-2)C(N)=O |
| < 1 | Nc1nc(-c2cn3c(n2)-c2cc(C4CC4)ccc2OCC3)n(CC(F)(F)F)n1 |
| < 1 | Cc1nc(-c2cn3c(n2)-c2ccc(-c4cnn(CCO)c4)cc2OCC3)n(C(C)C)n1 |
| < 1 | CC(C)n1ncnc1-c1cn2c(n1)-c1ccc(O[C@@H](CCO)C(N)=O)cc1OCC2 |
| < 1 | CC(C)n1ncnc1-n1cc2c(n1)-c1ccc(-c3cn[nH]c3)cc1OCC2 |
| < 1 | CC(C)n1ncnc1-c1cn2c(n1)-c1cnc(N3CC[C@@H](O)[C@H]3C(N)=O)cc1OCC2 |
| < 1 | CNC(=O)CN1CC(c2ccc3c(c2)OCCn2cc(-c4ncnn4C(C)C)nc2-3)C1 |
| < 1 | CC(C)n1ncnc1-c1cn2c(n1)-c1ccc(O)cc1OCC2 |
| < 1 | CC(C)n1ncnc1-c1cn2c(n1)-c1ccc(C3CN(CCS(C)(=O)=O)C3)cc1OCC2 |
| < 1 | CC(C)n1ncnc1-c1cc2n(n1)-c1cc(CN3CCN(C(=O)CO)CC3)ccc1OCC2 |
| < 1 | CC(C)n1ncnc1-c1cn2c(n1)-c1ccc(C3CCN(CCO)CC3)cc1OCC2 |
| < 1 | Cc1nc(-c2cn3c(n2)-c2ccc(OCC(F)(F)F)cc2OCC3)n(C(C)C)n1 |

| IC50 [µM] | Structure (SMILES) |
| --- | --- |
| < 1 | CC(C)N(CCO)C(=O)c1cc2n(n1)-c1ccccc1OCC2 |
| < 1 | CC(C)n1ncnc1-c1cn2c(n1)-c1ccc(OCC(N)=O)cc1OCC2 |
| < 1 | CC(C)n1ncnc1-c1cn2c(n1)-c1ccc(OC3COC3)cc1OCC2 |
| < 1 | CC(C)n1ncnc1-c1cn2c(n1)-c1ccc(NCC3(N)COC3)cc1OCC2 |
| < 1 | OCCN1CCN(Cc2ccc3c(c2)-n2nc(-c4ncnn4CC(F)(F)F)cc2CCO3)CC1 |
| < 1 | CC(C)n1nc(N)nc1-c1cn2c(n1)-c1ccc(-c3ccc(Cl)cc3)cc1OCC2 |
| < 1 | Cc1nc(-c2cn3c(n2)-c2cnc(N4CCCC4C4CCCCN4C)cc2OCC3)n(CC(F)(F)F)n1 (stereo not given) |
| < 1 | COCc1nc(-c2cn3c(n2)-c2ccc(C)cc2OCC3)n(C(C)C)n1 |
| < 1 | OCCn1cc(-c2ccc3c(c2)OCCn2cc(-c4ncnn4CC(F)(F)F)nc2-3)cn1 |
| < 1 | CNc1nc(-c2cn3c(n2)-c2ccccc2OCC3)n(C(C)C)n1 |
| < 1 | CC(C)n1ncnc1-c1cn2c(n1)-c1ccc(C3CCN(CCS(=O)(=O)N(C)C)CC3)cc1OCC2 |
| < 1 | CC(C)n1ncnc1-c1cn2c(n1)-c1cc(-c3ccc[nH]c3=O)ncc1OCC2 |
| < 1 | Cc1nc(-c2cn3c(n2)-c2ccc(-c4cncnc4)cc2OCC3)n(C(C)C)n1 |
| < 1 | Cc1ccc2c(c1)OCCn1cc(-c3nc(C)nn3C(C)C)nc1-2 |
| < 1 | CNC(=O)c1ccc2c(c1)-c1nn(-c3ncnn3C(C)C)cc1CCO2 |
| < 1 | Nc1nc(-c2cn3c(n2)-c2ccc(-c4ccc(Cl)cc4)cc2OCC3)n(-c2ccccc2Cl)n1 |
| < 1 | CC(C)n1ncnc1-c1cn2c(n1)-c1ccc(N)cc1OCC2 |
| < 1 | NC(=O)C1(Oc2ccc3c(c2)OCCn2cc(-c4ncnn4CC(F)(F)F)nc2-3)CC1 |
| < 1 | NC(=O)CN1CC(c2ccc3c(c2)OCCc2cn(-c4ncnn4-c4ccc(F)cc4F)nc2-3)C1 |
| < 1 | OCCN1CCC(c2ccc3c(c2)-c2nn(-c4ncnn4-c4ccc(F)cc4F)cc2CCO3)CC1 |
| < 1 | CC(C)n1ncnc1-c1cn2c(n1)-c1ccc(OC3CCC3)cc1OCC2 |
| < 1 | CN(C)c1cc2c(cn1)-c1nc(-c3nc(CO)nn3CC(F)(F)F)cn1CCO2 |
| < 1 | CC(C)n1nc(C2CC2)nc1-c1cn2c(n1)-c1ccc(Br)cc1OCC2 |
| < 1 | CCCC(Oc1ccc2c(c1)OCCn1cc(-c3ncnn3C(C)C)nc1-2)C(N)=O (stereo not given) |
| < 1 | O=C(c1ccc2c(c1)-c1nc(-c3ncnn3CC(F)(F)F)cn1CCO2)N1CCC(O)CC1 |

| IC50 [µM] | Structure (SMILES) |
| --- | --- |
| < 1 | CC(C)n1ncnc1-c1cc2n(n1)-c1cc(C(=O)N3CCC(O)CC3)ccc1OCC2 |
| < 1 | CC(C)n1ncnc1-c1cn2c(n1)-c1ccc(N3CCC[C@@H]3C(N)=O)cc1OCC2 |
| < 1 | CC(C)n1ncnc1-c1cn2c(n1)-c1ccc(NCC(N)=O)cc1OCC2 |
| < 1 | CC(C)n1ncnc1-c1cn2c(n1)-c1cc(C(F)F)ncc1OCC2 |
| < 1 | Cc1nc(-c2cn3c(n2)-c2cc(-c4ccc[nH]c4=O)ccc2OCC3)n(C(C)C)n1 |
| < 1 | Cc1nc(-c2cn3c(n2)-c2cc(-c4cc[nH]c(=O)c4)ccc2OCC3)n(C(C)C)n1 |
| < 1 | Cc1nc(-c2cn3c(n2)-c2cnc(NCC(N)=O)cc2OCC3)n(C(C)C)n1 |
| < 1 | Cc1nc(-c2cn3c(n2)-c2ccc(-c4cnn(CCN5CCOCC5)c4)cc2OCC3)n(C(C)C)n1 |
| < 1 | C[C@H](Oc1ccc2c(c1)OCCn1cc(-c3ncnn3C(C)(C)C)nc1-2)C(N)=O |
| < 1 | CC(C)n1ncnc1-c1cn2c(n1)-c1cc(-c3cncnc3)ccc1OCC2 |
| < 1 | CC(C)n1ncnc1-c1cn2c(n1)-c1cc(C(N)=O)ccc1OCC2 |
| < 1 | CC(C)n1ncnc1-n1cc2c(n1)-c1cc(-c3cn[nH]c3)ccc1OCC2 |
| < 1 | Nc1nc(-c2cn3c(n2)-c2cc(-c4ccc(Cl)cc4)ccc2OCC3)n(-c2ccccc2Cl)n1 |
| < 1 | CONC(=O)c1ccc2c(c1)OCCn1cc(-c3ncnn3C(C)C)nc1-2 |
| < 1 | CC(C)n1ncnc1-c1cn2c(n1)-c1ccc(-c3cnn(C(C)(C)C(N)=O)c3)cc1OCC2 |
| < 1 | Cc1nc(-c2cn3c(n2)-c2ccc(-c4cnn(C)c4)cc2OCC3)n(C(C)C)n1 |
| < 1 | CC(C)n1ncnc1-c1cn2c(n1)-c1ccc(OCC(F)(F)F)cc1OCC2 |
| < 1 | CC(C)n1ncnc1-c1cc2n(n1)-c1cc(C3CN(CC(N)=O)C3)ccc1OCC2 |
| < 1 | CC(C)n1ncnc1-c1cn2c(n1)-c1cnc(N[C@@H](C)C(N)=O)cc1OCC2 |
| < 1 | CNc1ccc2c(n1)OCCn1cc(-c3ncnn3C(C)C)nc1-2 |
| < 1 | OCCN1CCC(c2ccc3c(c2)-n2nc(-c4ncnn4CC(F)(F)F)cc2CCO3)CC1 |
| < 1 | Cc1nc(-c2cn3c(n2)-c2cnc(N4CCCC4CN4CCCCC4)cc2OCC3)n(CC(F)(F)F)n1 (stereo not given) |
| < 1 | CC(C)(CO)NC(=O)c1ccc2c(c1)-c1nc(-c3nccn3-c3ccccc3Cl)cn1CCO2 |
| < 1 | CC(C)n1ncnc1-c1cn2c(n1)-c1ccc(OC3CC3)cc1OCC2 |
| < 1 | CC(C)n1ncnc1-c1cn2c(n1)-c1cnc(N)cc1OCC2 |

| IC50 [µM] | Structure (SMILES) |
| --- | --- |
| < 1 | Cc1nc(-c2cn3c(n2)-c2ccc(CN)cc2OCC3)n(-c2ccc(F)cc2F)n1 |
| < 1 | CC(C)n1ncnc1-c1cc2n(n1)-c1cc(C3CNC3)ccc1OCC2 |
| < 1 | NC(=O)CNc1ccc2c(c1)OCCn1cc(-c3ncnn3CC(F)(F)F)nc1-2 |
| < 1 | Cc1nc(-c2cn3c(n2)-c2ccc(C4CCN(CC(N)=O)CC4)cc2OCC3)n(C(C)C)n1 |
| < 1 | COC(=O)c1ccc2c(c1)OCCn1cc(-c3ncnn3C(C)C)nc1-2 |
| < 1 | C[C@@H]1CN(C(=O)c2ccc3c(c2)-c2nc(-c4ncnn4CC(F)(F)F)cn2CCO3)C[C@H](C)N1 |
| < 1 | CC(C)n1ncnc1-c1cn2c(n1)-c1ccc(-c3cn[nH]c3)cc1OCC2 |
| < 1 | CC(C)n1ncnc1-c1cn2c(n1)-c1ccc(CC(N)=O)cc1OCC2 |
| < 1 | CC(CO)Nc1cc2c(cn1)-c1nc(-c3ncnn3CC(F)(F)F)cn1CCO2 (stereo not given) |
| < 1 | Cc1nc(-c2cn3c(n2)-c2cc(-c4cnn(C)c4)ccc2OCC3)n(C(C)C)n1 |
| < 1 | C[C@H](Oc1ccc2c(c1)OCCn1cc(-c3ncnn3C3CC3)nc1-2)C(N)=O |
| < 1 | NC(=O)[C@@H]1CCCN1c1cc2c(cn1)-c1nc(-c3ncnn3-c3ccccc3Cl)cn1CCO2 |
| < 1 | Cc1nc(-c2cn3c(n2)-c2ccc(-c4cn[nH]c4)cc2OCC3)n(C(C)C)n1 |
| < 1 | CC(C)n1ncnc1-c1cn2c(n1)-c1ccc(N(C)[C@@H](C)C(N)=O)cc1OCC2 |
| < 1 | Cc1nc(-c2cn3c(n2)-c2ccc(-c4cnc(N(C)C)nc4)cc2OCC3)n(C(C)C)n1 |
| < 1 | Cc1nc(-c2cn3c(n2)-c2ccc(OC(C)C)cc2OCC3)n(C(C)C)n1 |
| < 1 | CC(C)n1nc(N)nc1-c1cn2c(n1)-c1ccccc1OCC2 |
| < 1 | CS(=O)(=O)CCNC(=O)c1ccc2c(c1)-c1nc(-c3ncnn3CC(F)(F)F)cn1CCO2 |
| < 1 | Cc1nc(-c2cn3c(n2)-c2cnc(N)cc2OCC3)n(C(C)C)n1 |
| < 1 | NC(=O)[C@@H]1CNCCN1c1ccc2c(c1)OCCn1cc(-c3ncnn3CC(F)(F)F)nc1-2 |
| < 1 | CC(C)n1nc(N)nc1-c1cn2c(n1)-c1cc(F)c(F)cc1OCC2 |
| < 1 | Cc1nc(-c2cn3c(n2)-c2ccc(OC4CC4)cc2OCC3)n(C(C)C)n1 |
| < 1 | CC(C)C(Oc1ccc2c(c1)OCCn1cc(-c3ncnn3CC(F)(F)F)nc1-2)C(N)=O (stereo not given) |
| < 1 | CC(C)(Oc1ccc2c(c1)OCCn1cc(-c3ncnn3CC(F)(F)F)nc1-2)C(N)=O |

| Structure (SMILES) | IC50 [µM] |
| --- | --- |
| CC(C)n1ncnc1-c1cn2c(n1)-c1ccc([C@H]3C[C@H]4CC[C@@H](C3)N4CC(N)=O)cc1OCC2 | < 1 |
